In patent publication US11407742B2 (THE KITASATO INSTITUTE, priority 2017, dated 2022):
≈ marks a conversion by molar mass, not a printed value.

Legend:
Solubility in solvent = format: physicochemical; conditions: organic solvents (methanol, DMSO)
[1] = system: Mycobacterium avium JCM 15430 strain; assay: Antibacterial activity against Mycobacterium avium complex, broth microdilution MIC (Test II-1); format: cell-based; conditions: JCM15430, 37° C. for 120 hours, MTT, minimum concentration inhibiting growth of 90% or more
Description: (§1) 6 mL of 7H9 liquid medium (Middlebrook 7H9 broth 0.5% (DIFCO), bovine serum albumin 5.0% (SIGMA), glucose 2.0% (Wako Pure Chemical Industries, Ltd.) and sodium chloride 0.85% (Kanto Chemical Co., Inc.)) containing 0.05% Tween80 (Wako Pure Chemical Industries, Ltd.) was put in a cell culturing flask T25 (Corning incorporated). To this flask was added 200 μL of a glycerol stored bacterial suspension of Mycobacterium avium (JCM15430, given by Institute of Physical and Chemical Research, Microbe Division) or 120 μL of a glycerol stored bacterial suspension of Mycobacterium intracellulare (JCM6384, given by Institute of Physical and Chemical Research, Microbe Division). The Mycobacterium avium was statically cultured at 37° C. for 96 hours, and the Mycobacterium intracellulare was statically cultured at 37° C. for 72 hours. The cultured bacterial suspension was diluted with the medium by 200 times for the Mycobacterium avium and by 600 times for the Mycobacterium intracellulare to prepare bacterial suspensions for inoculation (equivalent to 4×10^6 CFU/mL). The minimum inhibitory concentration (MIC) of each bacterial suspension was measured by carrying out a broth microdilution method in accordance with the following procedure. To a 96-well microplate, a two-stage dilution series (a final concentration of 0.001 to 50 μg/mL) of a test compound sample prepared beforehand was dispensed at 5 μL/well. Next, the bacterial suspension for inoculation was added at 95 μL/well. The culture solution in the well was mixed, and the resulting mixture cultured at 37° C. for 120 hours. After the culture, MTT reagent (SIGMA) was added at 5 μL/well, and the resulting mixture was cultured at 37° C. for 16 hours. Thereafter, a cytolytic buffer (dimethylformamide: 40.0% (nacalai tesque), acetic acid: 2.0% (Kanto Chemical Co., Inc.), sodium dodecyl sulfate: 20.0% (Wako Pure Chemical Industries, Ltd.), hydrochloric acid: 0.03 N (Kanto Chemical Co., Inc.)) at 95 μL/well, and the resulting mixture was shaken for 1 hour. For the culture solution in each well, the absorbance was measured at 570 nm, the growth inhibition rate was then calculated, and the minimum concentration indicative of inhibition of growth of 90% or more of bacteria was defined as a MIC value. Compounds 40551-F, -D, -G, -H, -I, -K and -L were used as test compounds, and ethambutol which is a known drug that is used for treatment of MAC infection was used as a comparative compound.

[2] = system: Mycobacterium intracellulare JCM 6384 strain; assay: as above; format: cell-based; conditions: JCM6384, 37° C. for 120 hours, MTT, minimum concentration inhibiting growth of 90% or more
Description: as §1

[3] = system: Mycobacterium bovis BCG Pasteur strain; assay: microbe, parasite or virus in culture; format: cell-based; conditions: Mycobacterium tuberculosis variant bovis BCG
[4] = system: Mycobacterium smegmatis MC^2155 strain; assay: Antibacterial activity against other nontuberculous mycobacteria, broth microdilution MIC (Test II-2); format: cell-based; conditions: Mycolicibacterium smegmatis, 37° C. for 30 hours, growth observed with the naked eye
Description: as §1
A test against Mycobacterium smegmatis as other nontuberculous mycobacteria was conducted in accordance with the following procedure. 6 mL of 7H9 liquid medium containing 0.5% Tween80 (Wako Pure Chemical Industries, Ltd.) was put in a cell culturing flask T25 (Corning incorporated). In this flask, a glycelol stored bacterial suspension of Mycobacterium smegmatis (MC^2155, acquired from American Type Culture Collection) was inoculated with one platinum loop, and statically cultured at 37° C. for 30 hours. The cultured bacterial suspension was then diluted by 200 times with the medium to prepare a bacterial suspension for inoculation (equivalent to 8×10^6 CFU/mL). The MIC of the bacterial suspension was measured by carrying out a broth microdilution method in the same procedure as in Test II-1. The bacterial suspension was cultured under conditions of 37° C. for 30 hours, and the MIC value was determined by observing growth of bacteria with the naked eye.

SMILES | Solubility in solvent (Solubility in solvent) | MIC [1] [µg/mL] | MIC [2] [µg/mL] | MIC [3] [µg/mL] | MIC [4] [µg/mL]
CC(C)C(=O)Nc1ccc(C(=O)Nc2ccn(C3CCC(OC4OC(C)C(N(C)C)C(O)C4O)C(C)O3)c(=O)n2)cc1 (stereo not drawn) [Compound 40551-D] | soluble in methanol, DMSO, etc. | 12.5 (≈ 21.3 µM) | 12.5 (≈ 21.3 µM) | 6.25 (≈ 10.6 µM) | –
CC(C)=CC(=O)Nc1ccn(C2CCC(OC3OC(C)C(N(C)C)C(O)C3O)C(C)O2)c(=O)n1 (stereo not drawn) [Compound 40551-F, N-(1-(5-((5-(dimethylamino)-3,4-dihydroxy-6-methyltetrahydro-2H-pyran-2-yl)oxy)-6-methyltetrahydro-2H-pyran-2-yl)-2-oxo-1,2-dihydropyrimidine-4-yl)-3-methylbuta-2-enamide] | soluble in methanol, DMSO, etc. | 0.78 (≈ 1.62 µM) | 0.39 (≈ 0.812 µM) | 1.56 (≈ 3.25 µM) | 3.12 (≈ 6.49 µM)
CCC(C)/C=C/C(=O)Nc1ccn(C2CCC(OC3OC(C)C(N(C)C)C(O)C3O)C(C)O2)c(=O)n1 (stereo not drawn) [Compound 40551-G] | soluble in methanol, DMSO, etc. | 6.25 (≈ 12.3 µM) | 3.12 (≈ 6.13 µM) | 6.25 (≈ 12.3 µM) | 12.5 (≈ 24.6 µM)
CC1OC(n2ccc(NC(=O)c3ccc(N4C(=O)C(C)(CO)NC4(C)C)cc3)nc2=O)CCC1OC1OC(C)C(N(C)C)C(O)C1O (stereo not drawn) [Compound 40551-H] | soluble in methanol, DMSO, etc. | 12.5 (≈ 19 µM) | 1.56 (≈ 2.37 µM) | 0.39 (≈ 0.592 µM) | 1.56 (≈ 2.37 µM)
C/C=C(\C)C(=O)Nc1ccn(C2CCC(OC3OC(C)C(N(C)C)C(O)C3O)C(C)O2)c(=O)n1 (stereo not drawn) [Compound 40551-I, (E)-N-(1-(5-((5-(dimethylamino)-3,4-dihydroxy-6-methyltetrahydro-2H-pyran-2-yl)oxy)-6-methyltetrahydro-2H-pyran-2-yl)-2-oxo-1,2-dihydropyrimidin-4-yl)-2-methylbuta-2-enamide] | soluble in methanol, DMSO, etc. | – | 25 (≈ 52 µM) | 6.25 (≈ 13 µM) | –
CC(C)CC(=O)Nc1ccn(C2CCC(OC3OC(C)C(N(C)C)C(O)C3O)C(C)O2)c(=O)n1 (stereo not drawn) [Compound 40551-K] | soluble in methanol, DMSO, etc. | 25 (≈ 51.8 µM) | 6.25 (≈ 13 µM) | 6.25 (≈ 13 µM) | 25 (≈ 51.8 µM)
CC(C)/C=C/C(=O)Nc1ccn(C2CCC(OC3OC(C)C(N(C)C)C(O)C3O)C(C)O2)c(=O)n1 (stereo not drawn) [Compound 40551-L, (E)-N-(1-(5-((5-(dimethylamino)-3,4-dihydroxy-6-methyltetrahydro-2H-pyran-2-yl)oxy)-6-methyltetrahydro-2H-pyran-2-yl)-2-oxo-1,2-dihydropyrimidin-4-yl)-4-methylpenta-2-enamide] | soluble in methanol, DMSO, etc. | 3.12 (≈ 6.31 µM) | 0.78 (≈ 1.58 µM) | 1.56 (≈ 3.15 µM) | 3.12 (≈ 6.31 µM)
CC[C@@H](CO)NCCN[C@@H](CC)CO [Ethambutol, reference compound] | – | 12.5 (≈ 61.2 µM) | 3.12 (≈ 15.3 µM) | 1.56 (≈ 7.64 µM) | 0.78 (≈ 3.82 µM)
